# From US8802597B2, “Herbicidal pyrimidines” (E I du Pont de Nemours and Company, priority 2003, dated 2014)
# Where two headings read alike, the source gives them in different places.
# How the values were obtained:
# Assay type in all cases: in vivo
# [1] = system: blackgrass (Alopecurus myosuroides); assay: Test B postemergence; details: Alopecurus myosuroides, post-emergence
# In short: (§1)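 Visual injury scored 0 (no effect) to 100 (complete control) versus untreated controls after 13 to 15 days in greenhouse. Treatments were pre- or postemergence sprays of surfactant-containing solvent formulations; postemergence plants at 1- to 4-leaf stage, 2 to 18 cm.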
# [2] = system: wild oat (Avena fatua); assay: Test B postemergence; details: Avena fatua, post-emergence
# In short: as §1
# [3] = system: morningglory (Ipomoea coccinea); assay: Test B pre/postemergence; details: Ipomoea; for pest or weed control at 125 g/ha: 125 g ai/ha; for pest or weed control at 500 g/ha: 500 g ai/ha
# In short: as §1
# [4] = system: Surinam grass (Brachiaria decumbens); assay: Test B pre/postemergence; details: Urochloa decumbens; for pest or weed control at 125 g/ha: 125 g ai/ha; for pest or weed control at 500 g/ha: 500 g ai/ha
# In short: as §1
# [5] = system: crabgrass (Digitaria sanguinalis); assay: Test B pre/postemergence; details: Digitaria sanguinalis; for pest or weed control at 125 g/ha: 125 g ai/ha; for pest or weed control at 500 g/ha: 500 g ai/ha
# In short: as §1
# [6] = system: barnyardgrass (Echinochloa crus-galli); assay: Test B pre/postemergence; details: Echinochloa crus-galli; for pest or weed control at 125 g/ha: 125 g ai/ha; for pest or weed control at 500 g/ha: 500 g ai/ha
# In short: as §1
# [7] = system: wheat (Triticum aestivum); assay: Test B pre/postemergence; details: Triticum aestivum; for plant injury at 125 g/ha: 125 g ai/ha; for plant injury at 500 g/ha: 500 g ai/ha
# In short: as §1
# [8] = system: velvetleaf (Abutilon theophrasti); assay: Test B pre/postemergence; details: Abutilon theophrasti; for pest or weed control at 125 g/ha: 125 g ai/ha; for pest or weed control at 500 g/ha: 500 g ai/ha
# In short: as §1
# [9] = system: giant foxtail (Setaria faberii); assay: Test B pre/postemergence; details: Setaria faberi; for pest or weed control at 125 g/ha: 125 g ai/ha; for pest or weed control at 500 g/ha: 500 g ai/ha
# In short: as §1
# [10] = system: pigweed (Amaranthus retroflexus); assay: Test B pre/postemergence; details: Amaranthus retroflexus; for pest or weed control at 125 g/ha: 125 g ai/ha; for pest or weed control at 500 g/ha: 500 g ai/ha
# In short: as §1
# [11] = system: cocklebur (Xanthium strumarium); assay: Test B pre/postemergence; details: Xanthium strumarium; for pest or weed control at 125 g/ha: 125 g ai/ha; for pest or weed control at 500 g/ha: 500 g ai/ha
# In short: as §1
# [12] = system: corn (Zea mays); assay: Test B pre/postemergence; details: Zea mays
# In short: as §1
# [13] = system: lambsquarters (Chenopodium album); assay: Test B pre/postemergence; details: Chenopodium album; for pest or weed control at 125 g/ha: 125 g ai/ha; for pest or weed control at 500 g/ha: 500 g ai/ha
# In short: as §1
# [14] = system: rice (Oryza sativa); assay: Test B flooded paddy test; details: Oryza sativa, Flood, 1000 g ai/ha; scale 0 to 100; read-out: Plant response rating, Rice
# In short: (§2)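 Plants were grown to the 2-leaf stage before treatment, then kept in a greenhouse for 13 to 15 days. Injury was rated visually against untreated controls on a 0 to 100 scale, where 0 is no effect and 100 is complete control.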
# [15] = system: umbrella sedge (Cyperus difformis); assay: Test B flooded paddy test; details: Cyperus difformis, Flood, 1000 g ai/ha; scale 0 to 100; read-out: Plant response rating, Sedge, Umbrella
# In short: as §2
# [16] = system: barnyardgrass (Echinochloa crus-galli); assay: Test B flooded paddy test; details: Echinochloa crus-galli, Flood, 1000 g ai/ha; scale 0 (no effect) to 100 (complete control); read-out: Plant response rating, Barnyardgrass
# In short: as §2
# [17] = system: duck salad (Heteranthera limosa); assay: Test B flooded paddy test; details: Heteranthera limosa, Flood, 1000 g ai/ha; scale 0 to 100; read-out: Plant response rating, Ducksalad
# In short: as §2
structure (smiles),measurement,setting,value
COC(=O)c1nc(C2CC2)nc(N)c1F [Compound 25],pest or weed control at 125 g/ha,"[1]; 125 g ai/ha, scale 0 to 100 (0 no effect, 100 complete control), read-out: Blackgrass plant response rating",10%
same,pest or weed control at 500 g/ha,"[1]; 500 g ai/ha, scale 0 to 100, read-out: Plant response rating, Blackgrass",60%
same,pest or weed control at 125 g/ha,"[2]; 125 g ai/ha, scale 0 to 100 (0 no effect, 100 complete control), read-out: Oat, Wild plant response rating",10%
same,pest or weed control at 500 g/ha,"[2]; 500 g ai/ha, scale 0 to 100, read-out: Plant response rating, Oat, Wild",20%
same,pest or weed control at 125 g/ha,"[3]; post-emergence, Postemergence, scale 0 to 100 (0 no effect, 100 complete control), read-out: Morningglory plant response rating",90%
same,pest or weed control at 500 g/ha,"[3]; post-emergence, Postemergence, scale 0 to 100, read-out: Plant response rating, Morningglory",90%
same,pest or weed control at 125 g/ha,"[3]; pre-emergence, Preemergence, scale 0 to 100 (0 no effect, 100 complete control), read-out: Plant response rating, Morningglory",80%
same,pest or weed control at 500 g/ha,"[3]; pre-emergence, Preemergence, scale 0 to 100 (0 no effect, 100 complete control), read-out: Morningglory plant response rating",90%
same,pest or weed control at 125 g/ha,"[4]; post-emergence, Postemergence, scale 0 to 100 (0 no effect, 100 complete control), read-out: Surinam Grass plant response rating",50%
same,pest or weed control at 500 g/ha,"[4]; post-emergence, Postemergence, scale 0 to 100, read-out: Plant response rating, Surinam Grass",70%
same,pest or weed control at 125 g/ha,"[4]; pre-emergence, Preemergence, scale 0 to 100 (0 no effect, 100 complete control), read-out: Plant response rating, Surinam Grass",20%
same,pest or weed control at 500 g/ha,"[4]; pre-emergence, Preemergence, scale 0 to 100 (0 no effect, 100 complete control), read-out: Surinam Grass plant response rating",70%
same,pest or weed control at 125 g/ha,"[5]; post-emergence, Postemergence, scale 0 to 100 (0 no effect, 100 complete control), read-out: Crabgrass plant response rating",60%
same,pest or weed control at 500 g/ha,"[5]; post-emergence, Postemergence, scale 0 to 100, read-out: Plant response rating, Crabgrass",80%
same,pest or weed control at 125 g/ha,"[5]; pre-emergence, Preemergence, scale 0 to 100 (0 no effect, 100 complete control), read-out: Plant response rating, Crabgrass",60%
same,pest or weed control at 500 g/ha,"[5]; pre-emergence, Preemergence, scale 0 to 100 (0 no effect, 100 complete control), read-out: Crabgrass plant response rating",70%
same,pest or weed control at 125 g/ha,"[6]; post-emergence, Postemergence, scale 0 to 100 (0 no effect, 100 complete control), read-out: Barnyardgrass plant response rating",40%
same,pest or weed control at 500 g/ha,"[6]; post-emergence, Postemergence, scale 0 to 100, read-out: Plant response rating, Barnyardgrass",80%
same,pest or weed control at 125 g/ha,"[6]; pre-emergence, Preemergence, scale 0 to 100 (0 no effect, 100 complete control), read-out: Plant response rating, Barnyardgrass",20%
same,pest or weed control at 500 g/ha,"[6]; pre-emergence, Preemergence, scale 0 to 100 (0 no effect, 100 complete control), read-out: Barnyardgrass plant response rating",60%
same,plant injury at 125 g/ha,"[7]; post-emergence, Postemergence, scale 0 to 100 (0 no effect, 100 complete control), read-out: Wheat plant response rating",20%
same,plant injury at 500 g/ha,"[7]; post-emergence, Postemergence, scale 0 to 100, read-out: Plant response rating, Wheat",30%
same,plant injury at 125 g/ha,"[7]; pre-emergence, Preemergence, scale 0 to 100 (0 no effect, 100 complete control), read-out: Plant response rating, Wheat",50%
same,plant injury at 500 g/ha,"[7]; pre-emergence, Preemergence, scale 0 to 100 (0 no effect, 100 complete control), read-out: Wheat plant response rating",60%
same,pest or weed control at 125 g/ha,"[8]; post-emergence, Postemergence, scale 0 to 100 (0 no effect, 100 complete control), read-out: Velvetleaf plant response rating",60%
same,pest or weed control at 500 g/ha,"[8]; post-emergence, Postemergence, scale 0 to 100, read-out: Plant response rating, Velvetleaf",70%
same,pest or weed control at 125 g/ha,"[8]; pre-emergence, Preemergence, scale 0 to 100 (0 no effect, 100 complete control), read-out: Plant response rating, Velvetleaf",70%
same,pest or weed control at 500 g/ha,"[8]; pre-emergence, Preemergence, scale 0 to 100 (0 no effect, 100 complete control), read-out: Velvetleaf plant response rating",80%
same,pest or weed control at 125 g/ha,"[9]; post-emergence, Postemergence, scale 0 to 100 (0 no effect, 100 complete control), read-out: Foxtail, Giant plant response rating",50%
same,pest or weed control at 500 g/ha,"[9]; post-emergence, Postemergence, scale 0 to 100, read-out: Plant response rating, Foxtail, Giant",80%
same,pest or weed control at 125 g/ha,"[9]; pre-emergence, Preemergence, scale 0 to 100 (0 no effect, 100 complete control), read-out: Plant response rating, Foxtail, Giant",40%
same,pest or weed control at 500 g/ha,"[9]; pre-emergence, Preemergence, scale 0 to 100 (0 no effect, 100 complete control), read-out: Foxtail, Giant plant response rating",80%
same,pest or weed control at 125 g/ha,"[10]; post-emergence, Postemergence, scale 0 to 100 (0 no effect, 100 complete control), read-out: Pigweed plant response rating",90%
same,pest or weed control at 500 g/ha,"[10]; post-emergence, Postemergence, scale 0 to 100, read-out: Plant response rating, Pigweed",100%
same,pest or weed control at 125 g/ha,"[10]; pre-emergence, Preemergence, scale 0 to 100 (0 no effect, 100 complete control), read-out: Plant response rating, Pigweed",80%
same,pest or weed control at 500 g/ha,"[10]; pre-emergence, Preemergence, scale 0 to 100 (0 no effect, 100 complete control), read-out: Pigweed plant response rating",90%
same,pest or weed control at 125 g/ha,"[11]; post-emergence, Postemergence, scale 0 to 100 (0 no effect, 100 complete control), read-out: Cocklebur plant response rating",90%
same,pest or weed control at 500 g/ha,"[11]; post-emergence, Postemergence, scale 0 to 100, read-out: Plant response rating, Cocklebur",90%
same,pest or weed control at 125 g/ha,"[11]; pre-emergence, Preemergence, scale 0 to 100 (0 no effect, 100 complete control), read-out: Plant response rating, Cocklebur",80%
same,pest or weed control at 500 g/ha,"[11]; pre-emergence, Preemergence, scale 0 to 100 (0 no effect, 100 complete control), read-out: Cocklebur plant response rating",90%
same,plant injury at 125 g/ha,"[12]; post-emergence, Postemergence, 125 g ai/ha, scale 0 to 100 (0 no effect, 100 complete control), read-out: Corn plant response rating",0%
same,"Corn plant response rating (crop injury, 0 = no effect, 100 = complete kill) at 500 g/ha","[12]; post-emergence, Postemergence, 500 g ai/ha, scale 0 to 100",30%
same,"Corn plant response rating (crop injury, 0 = no effect, 100 = complete kill) at 125 g/ha","[12]; pre-emergence, Preemergence, 125 g ai/ha, scale 0 to 100 (0 no effect, 100 complete control)",0%
same,plant injury at 500 g/ha,"[12]; pre-emergence, Preemergence, 500 g ai/ha, scale 0 to 100 (0 no effect, 100 complete control), read-out: Corn plant response rating",0%
same,pest or weed control at 125 g/ha,"[13]; post-emergence, Postemergence, scale 0 to 100 (0 no effect, 100 complete control), read-out: Lambsquarters plant response rating",90%
same,pest or weed control at 500 g/ha,"[13]; post-emergence, Postemergence, scale 0 to 100, read-out: Plant response rating, Lambsquarters",90%
same,pest or weed control at 125 g/ha,"[13]; pre-emergence, Preemergence, scale 0 to 100 (0 no effect, 100 complete control), read-out: Plant response rating, Lambsquarters",90%
same,pest or weed control at 500 g/ha,"[13]; pre-emergence, Preemergence, scale 0 to 100 (0 no effect, 100 complete control), read-out: Lambsquarters plant response rating",90%
same,plant injury at 1000 g/ha,[14],30%
same,pest or weed control at 1000 g/ha,[15],40%
same,pest or weed control at 1000 g/ha,[16],30%
same,pest or weed control at 1000 g/ha,[17],40%
